Data published in US20260070921A1, “COMPOUND, ENDOPLASMIC RETICULUM STRESS INHIBITOR, PHARMACEUTICAL PRODUCT, OPHTHALMIC AGENT, EYE DROPS, COMPOSITION, AND METHOD FOR PRODUCING COMPOUND” (KYOTO UNIVERSITY, priority 2022, published 2026).

System: HEK293 cells
Assay: Flow cytometry of intracellular assemblies of compound 1 with endocytosis inhibitors
Assay type: cell-based
Settings: compound 1 100 μM; chloroquine 100 μM, chlorpromazine 20 μM; 16 h
Description: HEK293 cells were seeded in 12-well plates at 3×10^5 cells/well. After 2 hours of incubation at 37° C., cells were treated with compound 1 (100 μM) and 9-(2,2-dicyanovinyl)julolidine (DCVJ, 1.0 μM) in the presence or absence of chloroquine (100 μM), chlorpromazine (20 μM), and genistein ([…]) in DMEM (10% FBS) at 37° C. for 16 hours. Cells were harvested by incubation in 2 mM EDTA/PBS (pH of 7.4) for 10 minutes. Fluorescence of the cells was measured using a BD FACSAria II and analyzed with BD FACSDiva software.

SMILES	Reduction of average DCVJ signal (intracellular assemblies of compound 1)
CN(C)CCCN1c2ccccc2Sc2ccc(Cl)cc21 [chlorpromazine]	about 30%
CCN(CC)CCCC(C)Nc1ccnc2cc(Cl)ccc12 (centres unmarked) [chloroquine]	about 30%
